The values that follow come from PMC5673977, “Transport Deficiency Is the Molecular Basis of Candida albicans Resistance to Antifungal Oligopeptides” (Frontiers in Microbiology, 2017).

By MIC is commonly meant the smallest concentration in the dilution series that meets the test's criterion for growth inhibition.

Format in all cases: cell-based, Candida albicans
Series [1] has as its system C. albicans SC5314. In words: Initial peptide uptake rate. The conditions noted are these: SC 5314; cells grown in YNB-SG; 50 mM potassium phosphate buffer (pH 5.0 or 6.5) + 1% glucose, 30°C, 100 μM peptide, residual peptide by TNBS A420, slope 0- to 10-min. As to the method:
(§1) Yeast cells grown exponentially in the YNB-SG medium were harvested by centrifugation (3000 ×g, 5 min), washed with 50 mM potassium phosphate buffer (pH 5.0 or 6.5), and suspended in the same buffer containing 1% glucose, to a final cell density corresponding to A660 ≅ 1.0. The cell suspension was incubated at 30°C. After 10 min, an oligopeptide solution was added, to give a final concentration of 100 μM. At that moment and at 5 min intervals thereafter, 2 mL samples of the cell suspension were withdrawn, immediately filtered through the Whatman GF/A filters and the filtrates were used to determine the residual peptide concentration. Then, the 1 mL portions of the filtrates were taken and combined with 1.25 mL aliquots of a solution containing 4% Na2B4O7 × 10 H2O and 0.8 mg mL^-1 of 2,4,6-trinitrobenzenesulfonate. The reaction was carried out at 37°C for 30 min. The A420 values were measured and the peptide concentration was read from the appropriate standard curve. Data were plotted as nanomoles of an oligopeptide, taken up by 1 mg (dry weight) of cells versus time. The initial uptake velocities were determined from the slopes of the linear part of the curves, in the 0- to 10-min region.

Series [2] has as its system C. albicans opt1Δ. The experiment in a line: Initial peptide uptake rate. The conditions noted are these: 50 mM potassium phosphate buffer (pH 5.0 or 6.5) + 1% glucose, 30°C, 100 μM peptide, TNBS A420, slope 0- to 10-min. As to the method:
as §1

In series [3] the test system is C. albicans opt1–opt5Δ ptr2Δ ptr22Δ. In words: Initial peptide uptake rate. The conditions noted are these: 50 mM potassium phosphate buffer (pH 5.0 or 6.5) + 1% glucose, 30°C, 100 μM peptide, TNBS A420, slope 0- to 10-min. As to the method:
as §1

Series [4] deals with C. albicans opt1–opt5Δ. In words: Initial peptide uptake rate. The conditions noted are these: 50 mM potassium phosphate buffer (pH 5.0 or 6.5) + 1% glucose, 30°C, 100 μM peptide, TNBS A420, slope 0- to 10-min. As to the method:
as §1

The test system of series [5] is C. albicans opt2Δ opt3Δ. The experiment in a line: Initial peptide uptake rate. The conditions noted are these: 50 mM potassium phosphate buffer (pH 5.0 or 6.5) + 1% glucose, 30°C, 100 μM peptide, TNBS A420, slope 0- to 10-min. As to the method: as §1
Series [6] concerns C. albicans opt4Δ. In words: Initial peptide uptake rate. The conditions noted are these: 50 mM potassium phosphate buffer (pH 5.0 or 6.5) + 1% glucose, 30°C, 100 μM peptide, TNBS A420, slope 0- to 10-min. As to the method: as §1
Series [7] has as its system C. albicans opt5Δ. The experiment in a line: Initial peptide uptake rate. The conditions noted are these: 50 mM potassium phosphate buffer (pH 5.0 or 6.5) + 1% glucose, 30°C, 100 μM peptide, TNBS A420, slope 0- to 10-min. As to the method:
as §1

In series [8] the test system is C. albicans ptr2Δ ptr22Δ. In words: Initial peptide uptake rate. The conditions noted are these: 50 mM potassium phosphate buffer (pH 5.0 or 6.5) + 1% glucose, 30°C, 100 μM peptide, TNBS A420, slope 0- to 10-min. As for the experimental part:
as §1

The subject of series [9] is C. albicans isolates NF1-3 and LNF1-3. The experiment in a line: Initial peptide uptake rate by isolates resistant to F2/F3. The conditions noted are these: all six isolates NF1-3, LNF1-3; Figure 4. As to the method: as §1
It is therefore clear that the diminished sensitivity of all six isolates to F2 and F3 was due to the reduced uptake, most likely by permease(s) of the PTR system.

The subject of series [10] is C. albicans SC5314. The conditions noted are these: SC 5314. As for the experimental part:
(§2) Strains were grown at 30°C in YPD medium (1% yeast extract, 2% peptone, and 2% glucose) and stored on YPD plates containing 2% agar. Susceptibility testing was performed in YPD and other three media: (a) RPMI-1640 w/o sodium bicarbonate, with L-glutamine + 2% glucose + 3.45% MOPS, pH adjusted to 7.0; (b) YNB-AS—Yeast Nitrogen Base w/o amino acids (contains ammonium sulfate 5 g L^-1) + 2% glucose; (c) YNB-SG—Yeast Nitrogen Base w/o amino acids and ammonium sulfate + 2% glucose + 0.2 g L^-1 sodium glutamate. In their solid version, used for the mutant generation and isolation, YNB-AS and YNB-SG contained 2% agar.
(§3) The in vitro growth inhibitory activity of antifungals was quantified by determination of minimal inhibitory concentration (MIC) values by the serial twofold dilution method, using the 96-well microtiter plates in three media: buffered RPMI-1640, YNB-AS, and YNB-SG. Conditions of the RPMI-1640-based assay were the same as outlined in the CLSI recommendations ([Clinical Laboratory Standards Institute, 2008]), except for the end-point readout that was done by spectrophotometric determination of cell density at 531 nm. Turbidity in individual wells was measured with a microplate reader (Victor^3; Perkin Elmer). MIC was defined as the lowest drug concentration that gave at least an 80% decrease in turbidity, relative to that of the drug-free growth control.
(§4) The 96-well microtiter plates were also used for determination of in vitro growth inhibitory activity in YPD and YNB-based media. Individual wells were inoculated with 5 × 10^3 cfu mL^-1 of C. albicans cells from the overnight culture in YPD medium. The inoculated plates were incubated 37°C for 24 h and then turbidity was measured with a microplate reader at 531 nm, as described above for the RPMI-1640-based assay.

For series [11], the system named is C. albicans opt1Δ. The conditions noted are these: turbidity 531 nm, at least 80% decrease. As to the method:
as §2, §3, §4

Series [12] concerns C. albicans opt1–opt5Δ ptr2Δ ptr22Δ. The conditions noted are these: turbidity 531 nm, at least 80% decrease. As for the experimental part:
as §2, §3, §4

Series [13] has as its system C. albicans opt1–opt5Δ. The conditions noted are these: turbidity 531 nm, at least 80% decrease. As to the method: as §2, §3, §4
Series [14] concerns C. albicans opt2Δ opt3Δ. The conditions noted are these: turbidity 531 nm, at least 80% decrease. As for the experimental part:
as §2, §3, §4

Series [15] deals with C. albicans opt4Δ. The conditions noted are these: turbidity 531 nm, at least 80% decrease. As to the method: as §2, §3, §4
The test system of series [16] is C. albicans opt5Δ. The conditions noted are these: turbidity 531 nm, at least 80% decrease. As for the experimental part: as §2, §3, §4
Series [17] concerns C. albicans ptr2Δ ptr22Δ. The conditions noted are these: turbidity 531 nm, at least 80% decrease. As for the experimental part:
as §2, §3, §4

The mark [18] stands for this setting: RPMI-1640 medium, MOPS pH 7.0, CLSI conditions.

In brackets after ≈: the same amount, converted by molar mass. Read-outs that look alike come from different tables or passages of the source. Where a SMILES comes first, the peptide text is derived from it.

With Ala-Ala [(Ala)2, reference compound], the “Uptake rate ± SD” value in the series with C. albicans SC5314 [1] is 5.12 ± 0.32 nmol min^-1 (mg dry weight)^-1; in the series on C. albicans opt1Δ [2] it was 4.50 ± 0.36 nmol min^-1 (mg dry weight)^-1; in series [3] it was <0.1 nmol min^-1 (mg dry weight)^-1; with C. albicans opt1–opt5Δ [4] it was 5.88 ± 0.40 nmol min^-1 (mg dry weight)^-1; in the series with C. albicans opt2Δ opt3Δ [5] it was 3.96 ± 0.29 nmol min^-1 (mg dry weight)^-1; in the series on C. albicans opt4Δ [6], 4.83 ± 0.31 nmol min^-1 (mg dry weight)^-1. The “Uptake rate ± SD” value is recorded as 5.00 ± 0.38 nmol min^-1 (mg dry weight)^-1 in the series with C. albicans opt5Δ [7] and <0.1 nmol min^-1 (mg dry weight)^-1 in the series on C. albicans ptr2Δ ptr22Δ [8]. The “Initial uptake rate relative to wild type SC5314 cells” value in [9] is on record as “remarkably lower”.

Consider `CC(C)[C@H](NC(=O)[C@H](Cc1c[nH]c2ccccc12)NC(=O)[C@H](Cc1ccccc1)NC(=O)[C@@H](NC(=O)[C@@H](NC(=O)[C@H](CCCCN)NC(=O)[C@@H](N)CCCCN)C(C)C)C(C)C)C(=O)N[C@@H](CCCCN)C(=O)N[C@@H](Cc1ccccc1)C(=O)N[C@@H](CCCCN)C(=O)O` [Peptide P10, Lys-Lys-Val-Val-Phe-Trp-Val-Lys-Phe-Lys] (H-KKVVFWVKFK-OH), for which the MIC in the series on C. albicans SC5314 [10] (RPMI-1640 medium, MOPS pH 7.0, CLSI conditions, turbidity 531 nm, at least 80% decrease) turned out to be 64 µg/mL (≈ 48.9 µM); in the series on C. albicans SC5314 [10] (YNB + L-Gln (0.3 g L^-1) pH 5.0), 64 µg/mL; in the series on C. albicans SC5314 [10] (YNB + L-Gln (0.3 g L^-1) pH 7.0), 64 µg/mL; in the series with C. albicans SC5314 [10] (YNB + amino acid mixture (composition as in RPMI-1640)), 64 µg/mL; against C. albicans SC5314 [10] (YNB-AS medium, 5 × 10^3 cfu mL^-1, 37°C, 24 h, turbidity 531 nm, at least 80% decrease), 64 µg/mL (≈ 48.9 µM); in the series with C. albicans SC5314 [10] (YNB-SG medium, 5 × 10^3 cfu mL^-1, 37°C, 24 h, turbidity 531 nm, at least 80% decrease), 64 µg/mL (≈ 48.9 µM). In addition, the MIC against C. albicans SC5314 [10] (growth medium YNB-SG (Table 6)) stood at 64 µg/mL (≈ 48.9 µM); in the series with C. albicans opt1Δ [11] (setting [18]), 64 µg/mL (≈ 48.9 µM); in the series on C. albicans opt1Δ [11] (YNB-AS medium, 37°C, 24 h) it was 64 µg/mL (≈ 48.9 µM); against C. albicans opt1Δ [11] (YNB-SG medium, 37°C, 24 h), 64 µg/mL (≈ 48.9 µM); in series [12] (setting [18]), 64 µg/mL (≈ 48.9 µM); in series [12] (YNB-AS medium, 37°C, 24 h) it was 64 µg/mL (≈ 48.9 µM). Also, the minimum inhibitory concentration (MIC) stood at 64 µg/mL (≈ 48.9 µM) in [12] (YNB-SG medium, 37°C, 24 h); 64 µg/mL (≈ 48.9 µM) against C. albicans opt1–opt5Δ [13] (setting [18]); 64 µg/mL (≈ 48.9 µM) against C. albicans opt1–opt5Δ [13] (YNB-AS medium, 37°C, 24 h); 64 µg/mL (≈ 48.9 µM) in the series with C. albicans opt1–opt5Δ [13] (YNB-SG medium, 37°C, 24 h); 64 µg/mL (≈ 48.9 µM) against C. albicans opt2Δ opt3Δ [14] (setting [18]); 64 µg/mL (≈ 48.9 µM) in the series with C. albicans opt2Δ opt3Δ [14] (YNB-AS medium, 37°C, 24 h). Also, the MIC is 64 µg/mL (≈ 48.9 µM) with C. albicans opt2Δ opt3Δ [14] (YNB-SG medium, 37°C, 24 h); 64 µg/mL (≈ 48.9 µM) against C. albicans opt4Δ [15] (setting [18]); 64 µg/mL (≈ 48.9 µM) with C. albicans opt4Δ [15] (YNB-AS medium, 37°C, 24 h); 64 µg/mL (≈ 48.9 µM) against C. albicans opt4Δ [15] (YNB-SG medium, 37°C, 24 h); 64 µg/mL (≈ 48.9 µM) in the series on C. albicans opt5Δ [16] (setting [18]); 64 µg/mL (≈ 48.9 µM) against C. albicans opt5Δ [16] (YNB-AS medium, 37°C, 24 h). The MIC was 64 µg/mL (≈ 48.9 µM) with C. albicans opt5Δ [16] (YNB-SG medium, 37°C, 24 h); 64 µg/mL (≈ 48.9 µM) against C. albicans ptr2Δ ptr22Δ [17] (setting [18]); 64 µg/mL (≈ 48.9 µM) in the series with C. albicans ptr2Δ ptr22Δ [17] (YNB-AS medium, 37°C, 24 h); 64 µg/mL (≈ 48.9 µM) against C. albicans ptr2Δ ptr22Δ [17] (YNB-SG medium, 37°C, 24 h). Also, the “Uptake rate ± SD” value (with C. albicans SC5314 [1]; in the series on C. albicans opt1Δ [2]; in [3]; in the series on C. albicans opt1–opt5Δ [4]; with C. albicans opt2Δ opt3Δ [5]; in the series on C. albicans opt4Δ [6]) was <0.1 nmol min^-1 (mg dry weight)^-1 throughout. The “Uptake rate ± SD” value in the series with C. albicans opt5Δ [7] and in the series with C. albicans ptr2Δ ptr22Δ [8] was <0.1 nmol min^-1 (mg dry weight)^-1 throughout.

As for `N=C(N)NCCC[C@H](N)C(=O)N[C@@H](CCCCN)C(=O)N[C@@H](CCCCN)C(=O)N[C@@H](Cc1c[nH]c2ccccc12)C(=O)N[C@@H](Cc1ccccc1)C(=O)N[C@@H](Cc1c[nH]c2ccccc12)C(=O)O` [Peptide P6, Arg-Lys-Lys-Trp-Phe-Trp, reference compound] (H-RKKWFW-OH), the “Uptake rate ± SD” value was 2.22 ± 0.11 nmol min^-1 (mg dry weight)^-1 in the series on C. albicans SC5314 [1]; 1.85 ± 0.15 nmol min^-1 (mg dry weight)^-1 in the series on C. albicans opt1Δ [2]; 0.12 ± 0.03 nmol min^-1 (mg dry weight)^-1 in series [3]; 0.22 ± 0.07 nmol min^-1 (mg dry weight)^-1 in the series with C. albicans opt1–opt5Δ [4]; 0.40 ± 0.09 nmol min^-1 (mg dry weight)^-1 in the series with C. albicans opt2Δ opt3Δ [5]; 2.11 ± 0.16 nmol min^-1 (mg dry weight)^-1 with C. albicans opt4Δ [6]. The “Uptake rate ± SD” value is reported as 1.99 ± 0.10 nmol min^-1 (mg dry weight)^-1 in the series on C. albicans opt5Δ [7] and 2.46 ± 0.19 nmol min^-1 (mg dry weight)^-1 with C. albicans ptr2Δ ptr22Δ [8].
